System: HT-1080 cells
Assay: HT-1080 cell viability assay (ferroptosis induced by RSL3, Cell Titer-Glo)
Assay type: cell-based
Details: Homo sapiens, ferroptosis inducer RSL3, 20 hours, ferroptosis inhibitory activity
How it was run: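 Cells seeded overnight, then co-treated with RSL3 and compound (3-fold, 10-point dilution, top 1.1 μM) for 20 hours. Viability by CellTiter-Glo luminescence, normalized to untreated controls; EC50 from sigmoidal non-linear regression.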

Row | SMILES | EC50 (HT-1080, 20 h, Table 2) | further results
1 | Cc1nc(N2C[C@@H](C)N(CC(F)(F)F)[C@@H](C)C2)ccc1NC1C[C@H]2CC(N)C[C@H]2C1 (stereo partly drawn) [Compound 577, (3aR,6aS)-N2-(6-((3R,5S)-3,5-dimethyl-4-(2.2,2-trifluoroethyl)piperazin-1-yl)-2-methylpyridin-3-yl)octahydropentalene-2,5-diamine] |  | EC50 (HT-1080, 20 h, Table 3): 0.1 to 100 nM
2 | CCC(C)(C)c1ccc(NC2CC(CN)C2)cc1 (stereo not drawn) [Compound 333, N-(3-(aminomethyl)cyclobutyl)-4-(tert-pentyl)aniline] | 0.1 to 100 nM | 
3 | Cc1nc(N2C[C@@H](C)O[C@@H](C)C2)ccc1NC12CCC(N)(CC1)C2 [Compound 627] |  | EC50 (HT-1080, 20 h, Table 3): 100 to 1000 nM
4 | NC1CC(Nc2ccc3nc(N4CCC(C(F)(F)F)CC4)ccc3c2)C1 (stereo not drawn) [Compound 592, N1-(2-(4-(trifluoromethyl)piperidin-1-yl)quinolin-6-yl)cyclobutane-1,3-diamine] |  | EC50 (HT-1080, 20 h, Table 3): 0.1 to 100 nM
5 | CC(C)(C)c1ccc(NC2CCC(C[N+](C)(C)C)CC2)cc1 (stereo not drawn) [Compound 258, 1-(4-((4-(tert-butyl)phenyl)amino)cyclohexyl)-N,N,N-trimethylmethanaminium] | 1000 to 10000 nM | 
6 | CC1CN(c2ccc(NC3CC4(CC(N)C4)C3)c(F)n2)CC(C)N1CC(F)(F)F (stereo not drawn) [Compound 579, N2-(6-(3,5-dimethyl-4-(2,2,2-trifluoroethyl)piperazin-1-yl)-2-fluoropyridin-3-yl)spiro[3.3]heptane-2,6-diamine] |  | EC50 (HT-1080, 20 h, Table 3): 0.1 to 100 nM
7 | Cc1nc(N2CC(C)(C)OC(C)(C)C2)ccc1NC1CC2(CC(NCC(F)(F)F)C2)C1 (stereo not drawn) [Compound 589] |  | EC50 (HT-1080, 20 h, Table 3): 0.1 to 100 nM
8 | C[C@@H]1CN(c2ccc3cc(NCC[C@H]4C[C@H](N)C4)ccc3c2)C[C@H](C)O1 [Compound 583, N-(2-((1r,3S)-3-aminocyclobutyl)ethyl)-6-((2S,6R)-2,6-dimethylmorpholino) naphthalen-2-amine] |  | EC50 (HT-1080, 20 h, Table 3): 0.1 to 100 nM
9 | CCc1ccc(NC2CCC(N)CC2)cc1 (stereo not drawn) [Compound 125, N1-(4-ethylphenyl)cyclohexane-1,4-diamine] | 100 to 1000 nM | 
10 | CNC1CCC(Nc2ccc(C(C)(C)C)cc2)C1 (stereo not drawn) [Compound 194, N1-(4-(tert-butyl)phenyl)-N3-methylcyclopentane-1,3-diamine] | 100 to 1000 nM | 
11 | Cc1nc(N2CC[Si](C)(C)CC2)c(F)cc1NC1CC2(CC(N)C2)C1 (stereo not drawn) [Compound 638, N^2-(6-(4,4-dimethyl-1,4-azasilinan-1-yl)-5-fluoro-2-methylpyridin-3-yl)spiro[3.3]heptane-2,6-diamine] |  | EC50 (HT-1080, 20 h, Table 3): 0.1 to 100 nM
12 | CCN1CCC(Nc2ccc(C3CCCCC3)cc2)CC1 [Compound 72, N-(4-cyclohexylphenyl)-1-ethylpiperidin-4-amine] | 0.1 to 100 nM | 
13 | Cc1nc(N2CCOC3(CCC3)C2)ccc1NC1CC2(CC(N)C2)C1 (stereo not drawn) [Compound 626, N^2-(2-methyl-6-(5-oxa-8-azaspiro[3.5]nonan-8-yl)pyridin-3-yl)spiro[3.3]heptane-2,6-diamine] |  | EC50 (HT-1080, 20 h, Table 3): 0.1 to 100 nM
14 | CC1CCN(c2ncc(NC3CCC(N)CC3)cn2)CC1 (stereo not drawn) [Compound 44, N1-(2-(4-methylpiperidin-1-yl)pyrimidin-5-yl)cyclohexane-1,4-diamine] | 0.1 to 100 nM | 
15 | CC(C)(C)c1ccc(NC2C3CC4CC2CC(CN)(C4)C3)cc1 (stereo not drawn) [Compound 98, 5-(aminomethyl)-N-(4-(tert-butyl)phenyl)adamantan-2-amine] | 0.1 to 100 nM | 
16 | CC1CN(c2ccc3cc(NC4CC(N)C4(C)C)ccc3c2)CCO1 (stereo not drawn) [Compound 661] |  | EC50 (HT-1080, 20 h, Table 3): 0.1 to 100 nM
17 | Cc1nc(N2CC(C)OC(C(F)(F)F)C2)ccc1NC1CC2(CC(N)C2)C1 (stereo not drawn) [Compound 588] |  | EC50 (HT-1080, 20 h, Table 3): 0.1 to 100 nM
18 | NC1CCC(Nc2ccc3c(c2)CCC3)CC1 (stereo not drawn) [Compound 162, N1-(2,3-dihydro-1H-inden-5-yl)cyclohexane-1,4-diamine] | 100 to 1000 nM | 
19 | CC1(C)CCC(c2ccc(NC3CCS(=O)(=O)CC3)cc2)CC1 [Compound 261, 4-((4-(4,4-dimethylcyclohexyl)phenyl)amino)tetrahydro-2H-thiopyran 1,1-dioxide] | 100 to 1000 nM | 
20 | CC(C)(C)c1ccc(NC2CCC(N)(CO)CC2)cc1 (single isomer, unassigned) [Compound 213A, (1-amino-4-((4-(tert-butyl)phenyl)amino)cyclohexyl)methanol] | 100 to 1000 nM | 
21 | NC1CCC(Nc2ccc(CC(F)(F)F)cc2)CC1 (stereo not drawn) [Compound 223, N1-(4-(2,2,2-trifluoroethyl)phenyl)cyclohexane-1,4-diamine] | 1000 to 10000 nM | 
22 | CC(C)(C)c1ccc(NC2CCN(S(N)(=O)=O)CC2)cc1 [Compound 180, 4-((4-(tert-butyl)phenyl)amino)piperidine-1-sulfonamide] |  | EC50 (Table 2): 100 to 1000 nM
23 | N[C@H]1CC[C@H](CNc2ccc(N3CCN(CC(F)(F)F)CC3)cc2F)CC1 [Compound 586, N-(((1r,4r)-4-aminocyclohexyl)methyl)-2-fluoro-4-(4-(2,2,2-trifluoroethyl)piperazin-1-yl)aniline] |  | EC50 (HT-1080, 20 h, Table 3): 0.1 to 100 nM
24 | CC(C)(C)c1ccc(NC2CCC(N)C(O)C2)cc1 (stereo not drawn) [Compound 327, 2-amino-5-((4-(tert-butyl)phenyl)amino)cyclohexan-1-ol] | 100 to 1000 nM | 
25 | CN(C)c1ccc2cc(NC3CC4(CC(N)C4)C3)ccc2c1 (stereo not drawn) [Compound 601, N2-(6-aminospiro[3.3]heptan-2-yl)-N^6,N^6-dimethylnaphthalene-2,6-diamine] |  | EC50 (HT-1080, 20 h, Table 3): 0.1 to 100 nM
26 | Cc1cc(N(C)C)ccc1NC[C@H]1CC[C@H](N)CC1 [Compound 393, N^1-(((1r,4r)-4-aminocyclohexyl)methyl)-N4,N4,2-trimethylbenzene-1,4-diamine] | 0.1 to 100 nM | 
27 | NC1CCC(Nc2ccc(F)c(F)c2)CC1 (stereo not drawn) [Compound 160, N1-(3,4-difluorophenyl)cyclohexane-1,4-diamine] | 1000 to 10000 nM | 
28 | N[C@H]1CC[C@H](CNc2ccc3c(c2)CCC3)CC1 [Compound 308, N-(((1r,4r)-4-aminocyclohexyl)methyl)-2,3-dihydro-1H-inden-5-amine] | 0.1 to 100 nM | 
29 | O=C1CC(C(=O)NC2CC3(C2)CC(Nc2ccc(N4CCC(C(F)(F)F)CC4)cc2)C3)CN1 (stereo not drawn) [Compound 375] | 0.1 to 100 nM | 
30 | CC(C)(C)c1ccc(NC2CCC(NCC(F)(F)F)CC2)cc1 (stereo not drawn) [Compound 168A, N-(4-(tert-butyl)phenyl)-N-(2,2,2-trifluoroethyl)cyclohexane-1,4-diamine] | 1000 to 10000 nM | 

More lines, main results first:

Row | EC50 (HT-1080, 20 h, Table 2) | SMILES | further results
31 | 100 to 1000 nM | CC1CN(c2cc(F)c(NC[C@H]3CC[C@H](N)CC3)cc2F)CC(C)O1 (stereo partly drawn) [Compound 481, N-(((1r,4r)-4-aminocyclohexyl)methyl)-4-(2,6-dimethylmorpholino)-2,5-difluoroaniline] | 
32 | 0.1 to 100 nM | COc1nc(N2C[C@@H](C)O[C@@H](C)C2)ccc1NC[C@H]1CC[C@H](N)CC1 [Compound 511, N-(((1r,4R)-4-aminocyclohexyl)methyl)-6-((2S,6R)-2,6-dimethylmorpholino)-2-methoxypyridin-3-amine] | 
33 | 0.1 to 100 nM | Cc1nc(N2CC(C)OC(C)C2)ccc1NCC12CC3CC(C1)C(N)C(C3)C2 (stereo not drawn) [Compound 516A, N-(((1s,4r)-4-aminoadamantan-1-yl)methyl)-6-(2,6-dimethylmorpholino)-2-methylpyridin-3-amine] | 
34 | 0.1 to 100 nM | CC(C)C1CCN(c2ncc(NC3CC(N)C3)cn2)CC1 (stereo not drawn) [Compound 28, N1-(2-(4-isopropylpiperidin-1-yl)pyrimidin-5-yl)cyclobutane-1,3-diamine] | 
35 | 0.1 to 100 nM | Cc1nc(N2CC[C@H]3OCCC[C@@H]3C2)ccc1NC1CC2(CC(N)C2)C1 (stereo partly drawn) [Compound 508, N2-(6-((4aR,8aR)-hexahydro-2H-pyrano [3,2-c]pyridin-6 (5H)-yl)-2-methylpyridin-3-yl)spiro[3. 3]heptane-2,6-diamine] | 
36 | 1000 to 10000 nM | COc1cc(N2C[C@@H](C)O[C@@H](C)C2)ncc1NC1CC2(CC(N)C2)C1 (stereo partly drawn) [Compound 501, N^2-(6-((2R,6S)-2,6-dimethylmorpholino)-4-methoxypyridin-3-yl)spiro[3.3]heptane-2,6-diamine] | 
37 | 1000 to 10000 nM | CC(C)(C)c1ccc(NC2CCC(N)CC2)c(Cl)c1 (single isomer, unassigned) [Compound 183A, N1-(4-(tert-butyl)-2-chlorophenyl)cyclohexane-1,4-diamine] | 
38 | 0.1 to 100 nM | CC[C@@H]1CN(c2ccc(NC3CC4(CC(N)C4)C3)c(C)n2)C[C@H](C)O1 (stereo partly drawn) [Compound 546, N2-(6-((2R,6S)-2-ethyl-6-methylmorpholino)-2-methylpyridin-3-yl)spiro[3.3]heptane-2,6-diamine] | 
39 | 0.1 to 100 nM | Cc1nc(N2CC(C)SC(C)C2)ccc1NC1CC2(CC(N)C2)C1 (stereo not drawn) [Compound 568, N2-(6-(2,6-dimethylthiomorpholino)-2-methylpyridin-3-yl)spiro[3.3]heptane-2,6-diamine] | 
40 | 0.1 to 100 nM | Cc1cc(N2CCC(C(F)(F)F)CC2)ccc1NC1CCC(N)CC1 (stereo not drawn) [Compound 69, N1-(2-methyl-4-(4-(trifluoromethyl)piperidin-1-yl)phenyl)cyclohexane-1,4-diamine] | 
41 | 0.1 to 100 nM | Cc1nc(N2CCC(C(F)(F)F)CC2)ccc1NC[C@H]1CC[C@H](N)CC1 [Compound 371, N-(((1r,4r)-4-aminocyclohexyl)methyl)-2-methyl-6-(4-(trifluoromethyl)piperidin-1-yl)pyridin-3-amine] | 
42 | 0.1 to 100 nM | Cc1nc(N2CCC(C(C)C)CC2)ccc1NC1CCC(CN)CC1 (stereo not drawn) [Compound 31, N-(4-(aminomethyl)cyclohexyl)-6-(4-isopropylpiperidin-1-yl)-2-methylpyridin-3-amine] | 
43 | 0.1 to 100 nM | C[C@H]1CN(c2ccc(NC[C@H]3CC[C@H](N)CC3)cc2F)C[C@H](C)O1 [Compound 478, N-(((1r,4S)-4-aminocyclohexyl)methyl)-4-((2S,6S)-2,6-dimethylmorpholino)-3-fluoroaniline] | 
44 | 0.1 to 100 nM | CC1(C)CCCc2cc(NC3CCC(N)CC3)ccc21 (stereo not drawn) [Compound 337A, 1-N-(5,5-dimethyl-5,6,7,8-tetrahydronaphthalen-2-yl)cyclohexane-1,4-diamine] | 
45 | 0.1 to 100 nM | NC1CC2(C1)CC(Nc1ccc(N3CCC(C(F)(F)F)CC3)cc1F)C2 (stereo not drawn) [Compound 364, N2-(2-fluoro-4-(4-(trifluoromethyl)piperidin-1-yl)phenyl)spiro[3.3]heptane-2,6-diamine] | 

— patent US20240360114A1 (SIRONAX LTD., priority 2021, published 2024)
